Source: patent US9611246B2, “Compositions, apparatus, systems, and methods for resolving electronic excited states” (HALLSTAR INNOVATIONS CORP., priority 2012, dated 2017)

Legend:
[1] = Voltammetry, redox potential with respect to Ag/AgCl reference electrode; format: physicochemical; conditions: vs Ag/AgCl
Excerpt: For these experiments, dimethylsulfoxide (DMSO) and tetrabutylammonium perchlorate (TBAP) were obtained from Sigma Aldrich and used as received. […] Platinum wires (BASi MW-1032) of diameter 0.5 mm were employed for both the working electrode (WE) and counter electrode (CE). A dry-solvent tolerant Ag/AgCl reference electrode (RE) was obtained from eDAQ (Model ET072). The WE and CE were cleaned prior to each by first rinsing in acetone, then DI, followed by soaking in ˜50% aqueous H2SO4 for 10-20 minutes and then a final DI rinse. The RE electrode was cleaned prior to each use by an acetone rinse followed by DI rinse. Each sample solution was prepared in a fresh glass vial which had been rinsed with DI then acetone and allowed to dry Immediately after preparing each solution, it was purged with pure N2 gas for 15-20 minutes with the electrodes in place. Voltammetry data was collected shortly afterwards with an EG&G PAR 263 A Potentiostant/Galvanostat operated using a Labview-based control program. Scans were performed at various potential ranges between +2.0V and −2.0V (vs Ag/AgCl); all scan rates were constant at 200 mV/s.

[2] = Protoporphyrin IX triplet state quenching by laser flash photolysis; format: physicochemical; conditions: PPIX, acetonitrile solutions at room temperature
Protocol: To investigate if triplet states of protoporphyrin IX are quenched by the two compounds, laser flash photolysis experiments were performed. In these experiments, a deoxygenated acetonitrile solution of protoporphyrin IX is excited with short laser pulses from a Nd-YAG laser (355 nm, 5 ns pulse width). Difference absorption kinetic traces were recorded at different observation wavelengths (300 to 800 nm) and from these a transient absorption spectrum was constructed (FIG. 5A). […] In addition, two bands are observed at 320 and 440 nm, which are assigned to the triplet-triplet absorption of protoporphyrin IX. […] Triplet absorption kinetics at 440 nm may be utilized to obtain triplet quenching rate constants by the stabilizers. Triplet decay traces at 440 nm were recorded in the presence of different amounts of the alkoxy […], Formulas […])(1), and the mixture of II(b)(1) and II(c)(1). The decay traces were fitted to a first-order kinetics. The plot of these pseudo-first-order rate constants (inverse decay lifetime) vs. the concentration of the two compounds gives directly the bimolecular triplet quenching rate constant from the slope (FIG. 6). The biomolecular quenching rate constants for singlet excited state (kq^S) and triplet excited state (kq^T) quenching of PPIX by stabilizers in acetonitrile solutions at room temperature is shown in Table 4, as well and the Stern-Volmer rate constants.

[3] = Protoporphyrin IX fluorescence lifetime quenching (singlet excited state); format: physicochemical; conditions: PPIX; for bimolecular quenching rate constant for singlet excited state quenching (in words): acetonitrile; for Singlet Quenching Rate Constant: acetonitrile solutions at room temperature
Protocol: Fluorescence lifetime measurements are a convenient way to measure singlet state quenching by stabilizers. Protoporphyrin IX decay traces were recorded in the absence and presence of compound I(a)(1) and alkoxy […] (FIG. 3). […] The collected data shown in FIG. 3 were used to determine the bimolecular quenching rate constant for singlet excited state quenching by the compounds. The quenching rate constant may be directly extracted from the slope of the plot of the inverse fluorescence lifetime vs. the concentration of the two compounds (FIG. 4). […] The biomolecular quenching rate constants for singlet excited state (kq^S) and triplet excited state (kq^T) quenching of PPIX by stabilizers in acetonitrile solutions at room temperature is shown in Table 4, as well and the Stern-Volmer rate constants.

[4] = Stern-Volmer analysis of singlet oxygen suppression; format: physicochemical
Excerpt: The singlet oxygen phosphorescence intensity in the absence of the compound of Formulas I(a)(1), II(a)(1), II(d)(1), II(e)(1), or a mixture of II(b)(1) and II(c)(1) (I0) divided by the singlet oxygen phosphorescence intensity in the presence of compounds of Formula I/II(I) was plotted against the Formula I/II concentration (FIG. 16). From the slope of these plots (Stern-Volmer constant) and the lifetime of the quenched excited state, the bimolecular quenching constant can be extracted. If the excited state, which is quenched by the compound of Formula I(a)(1) (which causes a reduction in singlet oxygen production) is the singlet excited state of protoporphyrin IX then, using the previously measured fluorescence lifetime in acetonitrile (if =12.7 ns) a quenching rate constant of 2.4×10^9 M^−1 s^−1 is estimated. […] The rate constant derived from singlet oxygen phosphorescence quenching (FIG. 16) is only half of the more directly derived rate constant from fluorescence quenching, which could be caused by the difference in solvents or by some contribution of protoporphyrin triplet quenching by the compound of Formula I(a)(1). […] This rate constant is 5 times higher than the directly measured rate constant by laser flash photolysis (6.1×10^6 M^−1 s^−1). […] It must be noted that protoporphyrin IX triplet lifetime of ˜1 μs in air saturated DMSO was only estimated based on the directly measured triplet lifetime in air saturated acetonitrile and considering the different oxygen concentration in DMSO compared to acetonitrile. If necessary, the protoporphyrin IX triplet lifetime in air saturated DMSO can easily be measured by laser flash photolysis. The complex reaction mechanism is summarized in Scheme 1 (FIG. 17).
The biomolecular quenching rate constants for singlet excited state (kq^S) and triplet excited state (kq^T) quenching of PPIX by stabilizers in acetonitrile solutions at room temperature is shown in Table 4, as well and the Stern-Volmer rate constants.
Stern-Volmer constants are in direct correlation with the singlet oxygen suppression efficiency. Table 4 (above) summarizes the Stern-Volmer constants and PPIX singlet and triplet state quenching rate constants. Three different ranges of Stern-Volmer constants were observed. […] For compounds I(a)(1), II(d)(1), and the mixture of II(b)(1) and II(c)(1), Stern-Volmer constants of about 30 M^−1 were observed. For these three stabilizers, high PPIX singlet quenching rate constants (about 5×10^9 M^−1 s^−1) but low triplet quenching rate constants (<10^9 M^−1 s^−1) were observed. Here, the singlet oxygen suppression is probably dominated by PPIX singlet excited state quenching by these stabilizers. […] Because of the very high PPIX triplet quenching rate constant by compound II(a)(1) (3.2×10^9 M^−1 s^−1), the singlet oxygen suppression is probably dominated by triplet quenching. […] These kinetic parameters may include the MePPIX triplet and singlet lifetimes in air saturated and oxygen free CDCl3 and the bimolecular quenching constant by oxygen.

[5] = Photostabilization of Avobenzone and OMC, solution on quartz (Experiment 6-2); format: physicochemical; conditions: Avobenzone 3%, OMC 7.5%
Excerpt: Experiment 6-2 compares the compounds at 3% to photostabilize Avobenzone at 3% and OMC at 7.5%. The results are shown in Table 2 and graphically in FIG. 20.

[6] = UV and visible light absorption spectra of stabilizers; format: physicochemical; conditions: acetonitrile
Protocol: UV and visible light absorption spectra were recorded to investigate to what extent each stabilizer itself absorbs UV light. […] Protoporphyrin IX has weak absorption bands above 450 nm, where the two compounds are transparent (FIG. 2). The compound with the oxygen bridge (Formula II(d)(1)) caused a bathocromic shift of the UV absorption of the lowest energy band. The compound with the sulfur bridge (Formula II(e)(1)) shifted the lowest energy band further into the visible region.

[7] = test system: visible light-induced free radicals in pig skin; test: Visible light-induced free radicals in ALA-treated pig skin by Electron Spin Resonance; conditions: 1% reference
Protocol: A conjugated fused tricycle compound according to Formula II(a)(1) reduced visible light-induced free radicals in skin by up to 89% and did so in a dose-dependent manner (FIG. 21). The study was conducted using pig skin, which is recognized for its similarity to human skin. Topical application of aminolevulinic acid (ALA) induced the skin to over-produce the endogenous photosensitizer Protoporphyrin IX (PPIX). Solutions of Formula II(a)(1) at different concentrations were then topically applied to the ALA treated skin after which it was exposed to bright green light. The resulting free radical content of the skin was then measured by Electron Spin Resonance (ESR). Studies conducted in solution have shown that Formula II(a)(1) suppresses singlet oxygen production by PPIX. […] The mechanisms of action of Formula II(a)(1) and Tocopherol are different: the former prevents free radicals from forming; the latter scavenges free radicals after they appear.

[8] = reference value; cited from earlier work
[9] = 0.01 M in 0.1 M TBAP in DMSO, 200 mV/s

Compound	% UVA ([5]; stabilizer level 1.0) [%]	% UVB ([5]; stabilizer level 1.0) [%]	% UVA ([5]; stabilizer level 2.0) [%]	% UVB ([5]; stabilizer level 2.0) [%]	% UVA ([5]; stabilizer level 4.0) [%]	% UVB ([5]; stabilizer level 4.0) [%]	other results
COC(=O)C(C#N)=c1c2ccccc2c(=C(C#N)C(=O)OC)c2ccccc12 [Formula II(b)(1)]							first (or only) redox couple, oxidation peak [1, 9]: +54 mV; first (or only) redox couple, reduction peak [1, 9]: −545 mV; first (or only) redox couple, redox potential ([1]; estimated from the peaks): −245 mV
COC(=O)C(C#N)=C1c2ccccc2Oc2ccccc21 [Formula II(d)(1)]							Triplet Quenching Rate Constant [2]: 0.14 10^9 M^−1s^−1; bimolecular quenching rate constant for singlet excited state quenching (in words) [3]: high quenching rate constant; Singlet Quenching Rate Constant [3]: 3.7 10^9 M^−1s^−1
COC(=O)C(C#N)=C1c2ccccc2Sc2ccccc21 [Formula II(e)(1)]							Triplet Quenching Rate Constant [2]: 0.0012 10^9 M^−1s^−1; bimolecular quenching rate constant for singlet excited state quenching (in words) [3]: high quenching rate constant; Singlet Quenching Rate Constant [3]: 0.65 10^9 M^−1s^−1; second redox couple, oxidation peak (large) [1]: +434 mV; first (or only) redox couple, oxidation peak [1, 9]: −782 mV; first (or only) redox couple, reduction peak [1, 9]: −969 mV; second redox couple, reduction peak [1, 9]: −1409 mV; first (or only) redox couple, redox potential ([1]; estimated from the peaks): −875 mV; second redox couple, redox potential ([1]; estimated from the peaks): −1347 mV; second redox couple, oxidation peak ([1]; the small peak where two are given): −1286 mV; Stern-Volmer Constant of ^1O2 Suppression [4]: 1.2 M⁻¹; singlet oxygen suppression (in words) [4]: only negligible singlet oxygen suppression
CCCCC(CC)COC(=O)C(C#N)=C1c2ccccc2Oc2ccccc21 (centres unmarked) [Formula Y-1-9, Ethylhexyl cyano xanthenylidene acetate]	88.6	91.8	88.6	91.1	94.5	95.3	
CCCCC(CC)COC(=O)C(C#N)=C1c2ccccc2Sc2ccccc21 (centres unmarked) [Formula Y-1-15, Ethylhexyl cyano thioxanthenylidene acetate]	85.5	90.0	91.0	93.8	90.8	93.9	
CCCCC(CC)COC(=O)C(C#N)=C(c1ccccc1)c1ccc(OC)cc1 (centres unmarked) [SolaStay S1, ethylhexyl methoxycrylene, reference compound]	81.3	87.8	84.2	90.1	87.3	91.5	λmax [6]: 336 nm; extinction coefficient (molar absorptivity) ([6]; at λmax): 13,200 M −1 cm −1
Cc1c(C)c2c(c(C)c1O)CCC(C)(CCCC(C)CCCC(C)CCCC(C)C)O2 (centres unmarked) [Tocopherol, reference compound]							Free Radicals (a.u.) ([7]; ALA-treated pig skin): 1955 ± 366 a.u.; Free Radicals (%) ([7]; relative to 0 mM control): 78%
O=C(c1ccccc1)c1ccccc1 [benzophenone]							quantum yield of singlet oxygen generation (reference) [8]: 0.35
Ethylhexyl dimethyl 2,2′-anthracene-9,10-diylidenebis(cyanoacetate) [Formula Y-1-22]	82.1	87.8	87.8	92.1	91.0	94.7	
